The text below walks through data of ChEMBL document CHEMBL3045050, “A ligand-based approach for enhancing the pharmacokinetic profile of highly charged antibacterial agents” (Med Chem Res, 2012).

The subject of experiment [1] is Streptococcus pneumoniae. As to the kind of experiment: Antibacterial activity against Streptococcus pneumoniae. Format: functional.
Another experiment has as its target T1, Glutamate racemase (Streptococcus pneumoniae serotype 2 (strain D39 / NCTC 7466), UniProt Q04IS7).
T1 sequence (Q04IS7 whole entry): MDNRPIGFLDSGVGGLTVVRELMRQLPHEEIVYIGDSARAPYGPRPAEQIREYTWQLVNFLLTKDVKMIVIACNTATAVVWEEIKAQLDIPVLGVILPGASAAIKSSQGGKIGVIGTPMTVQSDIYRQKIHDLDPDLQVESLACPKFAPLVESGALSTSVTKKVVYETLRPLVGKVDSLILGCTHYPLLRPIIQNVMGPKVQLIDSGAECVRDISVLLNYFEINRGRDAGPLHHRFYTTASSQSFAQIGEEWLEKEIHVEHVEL
As to the kind of experiment: Inhibition of Streptococcus pneumoniae glutamate racemase.

In another experiment the test system is Enterococcus faecalis. Kind of experiment: Antibacterial activity against Enterococcus faecalis incubated overnight by disk diffusion method. In kind it is functional, organism-based.
In the next experiment the test system is Escherichia coli. As to the kind of experiment: Antibacterial activity against Escherichia coli incubated overnight by disk diffusion method. In kind it is functional, organism-based.
The next experiment has as its system Staphylococcus aureus. Kind of experiment: Antibacterial activity against Staphylococcus aureus incubated overnight by disk diffusion method. In kind it is functional, organism-based.
Experiment [2] concerns Streptococcus pneumoniae. As to the kind of experiment: Antibacterial activity against Streptococcus pneumoniae R6 incubated overnight by disk diffusion method. Format: functional.
For another experiment, the system named is Enterococcus faecium. As to the kind of experiment: Antibacterial activity against Enterococcus faecium incubated overnight by disk diffusion method. In kind it is functional, organism-based.
Experiment [3] deals with Streptococcus pneumoniae. As to the kind of experiment: Ratio of MIC for Streptococcus pneumoniae to IC50 for Streptococcus pneumoniae glutamate racemase.
Experiment [4] deals with Streptococcus pneumoniae. As to the kind of experiment: Antibacterial activity against Streptococcus pneumoniae R6 at 0.5 to 3 mg/ml incubated overnight by disk diffusion method. Format: functional, organism-based.

The structures appear in SMILES notation. ≈ marks a conversion by molar mass, not a printed value. Calls of active or inactive are those of the source. The calls are words filed in the database; no cut-off is given here.

On to `N[C@H](C[C@H](C(=O)O)c1cccc(-c2ccco2)c1)C(=O)O`, for which the MIC in the experiment on Streptococcus pneumoniae [1] is 0.24 µg/mL (≈ 0.83 µM). This compound showed an IC50 against Glutamate racemase of 1730 nM.

As to `O=C(CC(NCCc1c[nH]c2ccccc12)C(=O)O)c1ccc(Br)cc1` (stereo not given), the result with Enterococcus faecalis, in the experiment with Escherichia coli, with Staphylococcus aureus and with Enterococcus faecium was inactive. Also, in the experiment with Streptococcus pneumoniae [2], the MIC came to 1000 µg/mL (≈ 2410 µM).

In turn, `N[C@H](C[C@H](C(=O)O)c1ccc(NC(=O)Nc2ccccc2)cc1)C(=O)O` showed an MIC in the experiment with Streptococcus pneumoniae [1] of 16 µg/mL (≈ 44.8 µM). Besides, the IC50 against Glutamate racemase is 1370 nM. For the same compound, the Ratio in the experiment with Streptococcus pneumoniae [3] was 100.

Regarding `O=C(CC(NCCc1c[nH]c2ccccc12)C(=O)O)c1ccc(F)cc1` (stereo not given), the outcome in the experiment with Enterococcus faecalis, in the experiment on Escherichia coli, in the experiment with Staphylococcus aureus and in the experiment on Enterococcus faecium was inactive. Further, the MIC in the experiment with Streptococcus pneumoniae [2] stood at 1000 µg/mL (≈ 2820 µM).

`O=C(CC(NCCc1c[nH]c2ccccc12)C(=O)O)c1ccc(Cl)cc1` (stereo not given): the outcome in the experiment on Streptococcus pneumoniae [4], with Enterococcus faecalis, in the experiment with Escherichia coli, with Staphylococcus aureus and in the experiment on Enterococcus faecium was inactive.

With `Cc1ccc(C(=O)CC(NCCc2c[nH]c3ccccc23)C(=O)O)cc1` (stereo not given), the result in the experiment with Enterococcus faecalis, with Escherichia coli, in the experiment on Staphylococcus aureus and in the experiment with Enterococcus faecium was inactive. The same compound registered an MIC against Streptococcus pneumoniae [2] of 1000 µg/mL (≈ 2850 µM).
